Assay results published in the pKa sets of Baltruschat and Czodrowski (2020).

Details: acidic group

Row | SMILES | pKa
1 | N#CC(C#N)=C(C#N)Nc1ccc(C(=O)O)cc1 | 4.2
2 | CC1(C)CC(=O)C(=NO)C(=O)C1 | 5.4
3 | CCCCCCCCCc1c(O)n[nH]c1-c1ccccc1 | 10.6
4 | C[S+](C)CC(=O)c1ccccc1 | 8.6
5 | S=CNc1cccc(Cl)c1 | 10.8
6 | CCCP(=O)(CCC)CCC | 12.2
7 | Cc1cc(C(=O)O)c[nH]1 | 5.35
8 | CC(=O)CC(=S)Nc1ccccc1 | 7.5
9 | CC1=NS(=O)(=O)c2cc(Cl)ccc2N1 | 8.62
10 | O=c1[nH]cnc2[nH]ncc12 | 9.38
11 | CCC(C)CC(=O)O (centres undefined) | 4.84
12 | ONc1ncnc2nc[nH]c12 | 9.83
13 | NCc1cccc(S(N)(=O)=O)c1 | 10.1
14 | O=c1c(O)c1-c1ccc(F)cc1 | 2.07
15 | C[n+]1ccccc1C(C)(O)O | 10.6
16 | COc1cc(OC)nc(NS(=O)(=O)c2ccc(O)cc2)n1 | 7.29
17 | NC1=[NH+][C@@H](CC(=O)O)C(=O)N1CCCC([NH3+])C(=O)[O-] (some centres undefined) | 3.26
18 | COc1cccc(OC)c1-c1nc2ncccc2[nH]1 | 11.3
19 | O=C(O)/C=C/c1ccc2c(c1)OCO2 | 4.6
20 | CCCCNc1ncnc2[nH]ncc12 | 11.2
21 | CO | 15.5
22 | CCCC(C)C1(CC)C(=O)N=C([O-])NC1=O (centres undefined) | 12.4

Row | SMILES | pKa
23 | S=C(Nc1ccc(Cl)c(Cl)c1)c1cccc(Br)c1 | 9.26
24 | Cc1ccc(OCC(=O)N[C@H]2C(=O)N3[C@H]2SC(C)(C)[C@H]3C(=O)O)cc1 | 2.8
25 | Cn1nc(-c2ccccc2)cc1O | 10.9
26 | Nc1ncnc2c1ncn2CCOCP(=O)([O-])O | 7
27 | O=C(O)C1CCc2ccccc2O1 (centres undefined) | 3.38
28 | CC(C)NC(=S)S | 3.1
29 | C/C=C(\Cl)C(=O)O | 3.22
30 | CC#CC(=O)O | 2.63
31 | O=C([O-])CC(=O)/C=N/O | 8.7
32 | C=CCC1(CC=C)SC(=O)NC1=O | 6.1
33 | O=C(O)COc1ccccc1[N+](=O)[O-] | 2.9
34 | Cc1ccc(NC(=S)c2ccccc2)cc1 | 10.8
35 | CC(C)CCC1C(=O)C(O)C(CCC(C)C)(CCC(C)C)C1=O (centres undefined) | 6.3
36 | CC1NCCc2c1[nH]c1ccc([N+](=O)[O-])cc21 (centres undefined) | 14.1
37 | O=C(O)C(CO)[NH2+]Cc1cc(Cl)ccc1O (centres undefined) | 2.12
38 | CCSc1nccc(O)[n+]1C | 0.9
39 | C[N+](C)(C)CCCc1ccc(O)cc1 | 9.8
40 | O=C(O)CS/C=C/c1ccccc1 | 3.5
41 | CC(=O)Sc1ccc(O)cc1 | 8.88
42 | Nc1cc[nH+]c2c(O)cccc12 | 6.91
43 | C[n+]1cccc(CC(=O)c2ccccc2)c1 | 11
44 | O=C(O)c1ccco1 | 3.18

Row | SMILES | pKa
45 | Cc1cccc(NS(=O)(=O)c2ccc(N)cc2)[n+]1[O-] | 5.9
46 | Nc1ccc2cn[nH]c2c1 | 14.3
47 | CC(C)C1CC(CC(=O)O)[NH2+]C1C(=O)O (centres undefined) | 2.1
48 | O=C(O)C1CC1(Br)Br (centres undefined) | 3.57
49 | O=C(O)CSc1ccccc1 | 3.52
50 | CCP(=O)(CC)CC(C)=O | 11.9
51 | Cc1c(Br)cccc1C(=O)O | 3.36
52 | C[C@@H]1[NH2+][C@H](CCCCCCCC(=O)O)CC[C@@H]1O | 4.6
53 | COc1ccc(CCC(=O)O)cc1 | 4.72
54 | CN(C)C(=O)c1ncnc2nc[nH]c12 | 7.9
55 | CC(CC(=O)O)C(N)=O (centres undefined) | 4.59
56 | O=C([O-])c1ccc(O)c2ncccc12 | 9.32
57 | O=C([O-])c1ccccc1-n1nc(O)cc1-c1ccccc1 | 12.5
58 | CC(C)(C)C1CCn2nnnc2C(C(=O)O)C1 (centres undefined) | 4.4
59 | O=S(=O)([O-])c1ccc(O)c2[nH]ncc12 | 7.6
60 | O=[N+]([O-])c1cc(Cl)ccc1[Se]O | 10.2
61 | Cn1nc(/N=N/O)nc1N1CCCCC1 | 5.46
62 | O=C(NO)[C@@H]1[C@H](C(=O)NO)[C@@H]2CC[C@H]1O2 | 9.3
63 | COc1cnc(N)s1 | 4.98
64 | O=Cc1cccnc1C(=O)O | 3.7
65 | Cc1ccc(C(=O)NO)cc1 | 8.9
66 | CCO[C@H]1C[C@@H]1C(=O)O | 4.46

Row | SMILES | pKa
67 | Nc1ccccc1[N+](=O)[O-] | 13.4
68 | N#CC(C#N)=NNc1ccc([N+](=O)[O-])cc1Cl | 4.15
69 | O/C(=C\c1ccccc1)c1ccco1 | 8.5
70 | O=C(NO)c1ccncc1 | 7.82
71 | CN1CC(=O)NC1=O | 11.4
72 | Nc1c2ccccc2[nH+]c2c(O)cccc12 | 7.05
73 | Cc1cc(N)ccc1S(=O)(=O)Nc1nccs1 | 7.3
74 | O=C1Cc2cc(O)ccc21 | 7.24
75 | CCc1c(-c2ccccc2)nn(C2CC[NH+](C)CC2)c1O | 5.9
76 | CCCCCC(=O)O | 4.85
77 | [NH3+][C@@H](CCC(=O)O)C(=O)[O-] | 4.46
78 | NC(=O)[C@H](CCC(=O)O)NC=O | 4.3
79 | Cc1cccc(C)c1OCC(=O)O | 3.36
80 | CCC(CC)C1(CC)C(=O)NC(=S)NC1=O | 7.46
81 | C/C(=C\c1ccccc1)CC(=O)O | 5.35
82 | CCc1c(-c2ccccc2)nn(-c2ccccc2)c1O | 8
83 | CCCCCCC(=O)NO | 9.62
84 | Nc1ccc(O)cc1 | 10.1
85 | O=C(O)c1ccccc1-c1ccccc1 | 3.46

Same assay, conditions: basic group

Row | SMILES | pKa
86 | CCCCCCCCN(CC(C)O)CC(C)O (centres undefined) | 8.3
87 | NNC(=O)CC([NH2+]CCO)C(=O)[O-] (centres undefined) | 2.13
88 | CCCP(=O)(CCC)CCC | 4.9
89 | Clc1cccc(-c2ccccn2)n1 | 3.7
90 | OC(CN1CCOCC1)CN1CCOCC1 | 6.98
91 | CCOc1ccc2[nH]c(CC)nc2c1 | 6.27
92 | Nc1cccc2nc3ccccc3cc12 | 6.04
93 | Cc1cc(-c2ccccc2)n[n+](CCN2CCOCC2)c1N | 4.84
94 | ONc1ncnc2nc[nH]c12 | 3.8
95 | c1csc(C2CCCN2)c1 (centres undefined) | 9.35
96 | CCc1c(C)c[nH]c1C | 3.19
97 | NCc1cccc(S(N)(=O)=O)c1 | 8.55
98 | c1ccc(-c2cc[nH+]cc2)nc1 | 1.19
99 | COc1ccc2ncccc2c1 | 5.05
100 | O=C([O-])CN(CC(=O)[O-])Cc1ccccc1[O-] | 11.8
101 | COc1c(C)ncc(CO)c1C=O | 4.75
102 | CCSCCN | 9.48
103 | CC1NOCc2ccccc21 (centres undefined) | 3.7
104 | COc1cccc(OC)c1-c1nc2ncccc2[nH]1 | 4.85
105 | C=CCc1c(O)n[nH]c1C | 2.8
106 | C=O | 1.15
107 | C#CC(CC)(CC)N(C)C(C)C | 8.8
108 | C=CCN(CC=C)CCC[NH+](CC=C)CC=C | 6.96
109 | CC(O)CNCCO (centres undefined) | 8.81

Row | SMILES | pKa
110 | Cc1ccc(C2NCCS2)cc1 (centres undefined) | 5.35
111 | Cc1nc2cc(C(=O)[O-])ccc2[nH]1 | 6
112 | Cc1cnc([O-])nc1N | 12.4
113 | CCCCNc1ncnc2[nH]ncc12 | 4.67
114 | Brc1ccc(-c2ncc(-c3ccccc3)o2)cc1 | 0.4
115 | CC(N)CO (centres undefined) | 9.43
116 | C[NH+](C)c1ccc(/C=C/c2ccncc2)cc1 | 3.42
117 | Clc1cn[nH]c1 | 1.24
118 | C=C(C)C(=O)OCCCN | 9.62
119 | CCN(C)CCCNC(=O)/C=N/[O-] | 9.97
120 | c1ccc(CNC23OC4C5C6CC(C7C6C4C72)C53)cc1 (centres undefined) | 7.07
121 | Cc1ccc(N)cc1-c1cc(N)ccc1C | 5
122 | Nc1ncnc2c1ncn2CCOCP(=O)([O-])O | 4.18
123 | COc1cnnc2ccccc12 | 3.21
124 | Cc1ccc2cccc(C)c2n1 | 4.1
125 | c1ccc(-c2nnc(-c3ccccc3)o2)cc1 | 1.96
126 | Nc1cccc2cccnc12 | 4.01
127 | Nc1ccncc1 | 9.16
128 | Cc1ccccc1/C(=N\CCCN(C)C)c1ccccc1-c1ccccc1 | 9.25
129 | O=[N+]([O-])c1cccc2nccc(NCCCO)c12 | 7.06
130 | CC(C)N1CCCCC1 | 11
131 | C=CC(C)Nc1ccccc1 (centres undefined) | 4.57
132 | CN(CCO)CCO | 8.51
133 | NCC(=O)NCCc1c[nH]cn1 | 8.04

Row | SMILES | pKa
134 | Cc1ccccc1/C(=N\CCC[NH+](C)C)c1ccccc1N | 3.82
135 | O=C(O)c1ccco1 | -0.53
136 | Cc1ccc(C)c(C(=N)c2ccccc2)c1 | 6.79
137 | CCc1ccc(N)cc1 | 5.16
138 | NC(=S=O)c1ccccc1 | 0.8
139 | CN(C)C1CC(C)(C)NC(C)(C)C1 | 10.6
140 | CN1CCNCC1 | 9.6
141 | N#CCCN | 7.75
142 | CCN(CC)Cc1cc([N+](=O)[O-])c2ccccc2c1[O-] | 11
143 | CCc1ccc(/N=N/c2ccc(N(C)C)cc2)cc1C | 2.6
144 | OCCc1cnc(P(c2ncc(CCO)[nH]2)c2[nH]c(CCO)c[nH+]2)[nH]1 | 6.84
145 | Cc1ccc(OC(=O)CCCN(C)C)cc1 | 9.53
146 | O=C([O-])c1ccc(O)c2ncccc12 | 4.8
147 | CCc1ccccn1 | 5.98
148 | CCN(CC)CC(=O)Nc1ccccc1C | 7.95
149 | N#CC1CN2CCC1CC2 (centres undefined) | 7.85
150 | CCn1c(=O)n(C)c2ccccc21 | -3.7
151 | CNCC[NH2+]C | 7.29
152 | CCCc1ccc(C)nn1 | 4.25
153 | Nc1ccc(Oc2ccc(N)cc2)cc1 | 5.18
154 | C[NH2+]CC(=O)NCCc1c[nH]cn1 | 6.77
155 | CC(C)N1CCC(NN)CC1 | 9.65
156 | C#CC(C)Nc1ccccc1 (centres undefined) | 3.25
157 | Cc1ccc(/C(N)=N/O)cc1 | 5.14

Row | SMILES | pKa
158 | Cc1cc(CN)c(O)c(CN)c1 | 9.7
159 | CCCCNc1ccccc1 | 5.11
160 | Nc1ccccc1[N+](=O)[O-] | -0.24
161 | CN(C)CCC/N=C(\c1ccccc1)c1ccccc1Cl | 9
162 | CC(C)S(=O)(=O)n1c(N)nc2ccc(/C(=C/C(N)=O)c3cccc(F)c3)cc21 | 3.41
163 | N#CC(C#N)=NNc1ccc([N+](=O)[O-])cc1Cl | -0.62
164 | [NH3+]c1ccc(-c2ncc(-c3ccc(Cl)cc3)o2)cc1 | -0.1
165 | C/C(=N\c1ccccc1)Nc1ccccc1 | 8.3
166 | CO[C@H]1CC=C2CCN3CCC(CO)=C(CCO)[C@]23C1 | 8.69
167 | c1cc2nccnc2cn1 | 2.5
168 | Cc1cc2c(cc1N)Sc1cc([NH+](C)C)ccc1N2 | 4.81
169 | CCn1nnc(CC(=O)O)n1 | 3.45
170 | c1nc(NC2CCCCC2)c2ncn(C3CCCCC3)c2n1 | 4.4
171 | CCSCCN(CC)CC | 9.03
172 | COC(=O)N1c2ccccc2[C@@]23CCN4CC=C[C@]5(CC[C@]12[C@](O)(C(=O)OC)C5O)[C@H]43 (some centres undefined) | 5.63
173 | COc1ccccc1C(=O)N[C@@H]1C[C@H]2CC[C@@H](C1)N2Cc1ccccc1 | 8.88
174 | Cc1ccc(N)c(N)c1 | 5
175 | Nc1ccc(O)cc1 | 5.54
176 | Nc1cc([NH3+])ccc1O | 3.05
177 | Nc1nnnn1-c1cccc(Cl)c1 | 0.7
178 | [NH3+]CCCCCc1ccccn1 | 5.7
179 | CN(C)CCNC(=O)/C=N/[O-] | 9.43
